Assay results published in PMC10764104, “Discovery of Molecular Glue Degraders via Isogenic Morphological Profiling” (ACS Chemical Biology, 2023).

Key:
recombinant DDB1-CRBN = biological target: T1, recombinant DDB1-CRBN (Homo sapiens, UniProt Q96SW2); assay: Fluorescence polarization-based competition assay for CRBN binding; settings: 200 nM CRBN-DDB1, 20 nM pomalidomide-fluorescein tracer 16, triplicates; read-out: FP_CRBN_binding: CRBN binding affinity, EC50
T1 construct: His; made in house; host or cells: High Five insect cells (baculovirus made and propagated in SF9 cells)

GSPT2 = biological target: T2, GSPT2 (Homo sapiens, UniProt Q8IYD1+Q96SW2); assay: Western blot analysis of GSPT2 degradation in HEK293T cells; assay type: cell-based; settings: 0 to 10 μM, 16 h
T2 construct: endogenous in cells; host or cells: RKO WT or RKO CRBN KO
Procedure: Figure 3 FL2-14 is a selective GSPT2 molecular glue degrader. (A) Structure of FL2-14 comprising fluorosulfate scaffold FL2 (black) and tail group modification 14 (blue). (B) DMSO-normalized quantitative proteomics after 16 h of treatment with FL2-14 (10 μM) in RKO WT (n = 2). […] (C) Structural alignment of AlphaFold models of GSPT1 (AF-P15170-F1-model_v4 in gray) and GSPT2 (AF-Q8IYD1-F1-model_v4 in blue). (D) Validation of GSPT2 degradation by FL2-14. […] (E) Dose–response of FL2-14 in RKO and HEK293T cells. Cells were treated with the FL2-14 (0 to 10 μM) for 16 h. (F) Degradation of GSPT2^WT or GSPT2^G566N. […]
spectra were searched against the human proteome (Canonical, reviewed, 20 304 sequences) and appended known contaminants and streptavidin, with a maximum of two allowable miscleavage sites. The search was performed with full tryptic digestion. […] Peptide spectrum matches (PSMs) with precursor isolation interference values of > 70, average TMTpro reporter ion S/N < 10 and SPS Mass Matches < 65 % were excluded from quantification. Both unique and razor peptides were used for TMT quantification. […] Protein ratios are directly calculated from the grouped protein abundances using an ANOVA hypothesis test. Adjusted p‐values are calculated using the Benjamini‐Hochberg method. […]

In the case of `CN(Cc1ncc(C2CC2)o1)S(=O)(=O)Oc1ccc(Nc2ccc3c(c2)C(=O)N(C2CCC(=O)NC2=O)C3=O)cc1` (centres unmarked) [FL2-14], the EC50 (recombinant DDB1-CRBN) is reported as 991 nM and the “GSPT2 degradation in HEK293T cells” value (GSPT2) is reported as “could also be observed in HEK293T cells”.
